What was measured:
Format in all cases: biochemical
[1] = target: T1, O-acetylserine sulfhydrylase B (OASS-B, CysM) (Salmonella enterica, UniProt P29848); assay: ninhydrin cysteine activity assay; PLP absorbance and fluorescence changes
T1 construct: recombinant STOASS-B, His-tag removed with factor Xa

[2] = target: T2, O-acetylserine sulfhydrylase A (OASS-A, CysK) (Salmonella enterica, UniProt P0A1E3); assay: ninhydrin cysteine activity assay; PLP absorbance ([…] to […] nm) and fluorescence changes
T2 construct: recombinant STOASS-A, His-tag removed with factor Xa
T2 sequence (P0A1E3 2-323): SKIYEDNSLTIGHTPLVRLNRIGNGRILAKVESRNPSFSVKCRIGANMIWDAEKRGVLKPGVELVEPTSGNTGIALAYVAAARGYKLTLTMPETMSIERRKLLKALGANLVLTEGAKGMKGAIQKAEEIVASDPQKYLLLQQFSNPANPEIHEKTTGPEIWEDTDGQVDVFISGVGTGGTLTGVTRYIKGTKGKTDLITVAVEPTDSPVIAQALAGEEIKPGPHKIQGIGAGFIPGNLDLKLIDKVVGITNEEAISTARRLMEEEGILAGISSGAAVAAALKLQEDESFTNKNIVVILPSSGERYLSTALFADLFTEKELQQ

[3] = target: T1, O-acetylserine sulfhydrylase B (OASS-B, CysM); assay: ninhydrin cysteine activity assay; inactivation kinetics; PLP absorbance and fluorescence changes
[4] = target: T2, O-acetylserine sulfhydrylase A (OASS-A, CysK); assay: as above

T1 sequence (P29848 whole entry): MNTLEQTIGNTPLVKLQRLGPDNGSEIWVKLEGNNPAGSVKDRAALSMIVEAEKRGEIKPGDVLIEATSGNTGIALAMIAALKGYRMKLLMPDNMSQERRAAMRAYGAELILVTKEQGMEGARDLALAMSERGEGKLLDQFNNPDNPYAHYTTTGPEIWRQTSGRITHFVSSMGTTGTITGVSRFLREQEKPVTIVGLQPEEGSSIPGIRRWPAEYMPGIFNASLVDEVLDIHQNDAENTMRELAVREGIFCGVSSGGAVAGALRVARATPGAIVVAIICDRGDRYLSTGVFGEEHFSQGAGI

Compound | IC50 [1] [mM] | IC50 [2] [µM] | IC50 [3] [µM] | IC50 [4] [µM]
NC(CF)C(=O)O (stereo not shown) [F-Ala, monofluoroalanine] | 1.29 ± 0.23 | 480 ± 50 |  | 
N[C@H](C(=O)O)C(F)(F)F [triF-Ala, β,β,β-trifluoroalanine] |  |  | 940 ± 60 | 130 ± 10

Reference: paper PMC6161599, “Inhibition of O-acetylserine sulfhydrylase by fluoroalanine derivatives” (Journal of Enzyme Inhibition and Medicinal Chemistry, 2018)
